Values of other authors as cited in article PMC6311893, “Computational prediction of plasma protein binding of cyclic peptides from small molecule experimental data using sparse modeling techniques” (BMC Bioinformatics, 2018).
Like-named read-outs stand apart in the source and are kept apart here. Positions of bridges follow the written chain, without caps; N, C: chain ends. Non-standard residues stand in square brackets, D forms with d. Residues, ends and D or L forms follow the SMILES beside them. *: point of attachment. Octanoyl(6-Me) = CCC(C)CCCCC(=O)*; Dab = NCC[CH](N)C(=O)O

System: plasma protein
Conditions: cited from earlier work
[1] = fraction bound to plasma protein, small molecule dataset, sheet 1-SM, Set Dtr, ref Ingle et al.
[2] = fraction bound to plasma protein, small molecule dataset, sheet 1-SM, ref Ingle et al.
[3] = fraction bound to plasma protein, small molecule dataset, sheet 1-SM (Set Dte = test, Dtr = training), ref Ingle et al.

Cc1nccn1CC1CCc2c(c3ccccc3n2C)C1=O (stereo not drawn) [Ondansetron]
PPB (fb) [1]: 0.73

COC(CC(=O)NC1C(=O)N2C1SC(C)(C)C2C(=O)O)c1cccs1 (stereo not drawn) [penicillin73]
PPB (fb) [2]: 0.59

CN1CCCC(n2nc(Cc3ccc(Cl)cc3)c3ccccc3c2=O)CC1 (stereo not drawn) [Azelastine]
PPB (fb) [1]: 0.85

Nc1nc(NC2CC2)c2ncn([C@H]3C=C[C@@H](CO)C3)c2n1 [Abacavir]
PPB (fb) [1]: 0.5

nilvadipine
PPB (fb) (plasma): 0.99

CCOC(=O)[C@H](CCc1ccccc1)N[C@@H](C)C(=O)N1[C@H](C(=O)O)C[C@H]2CCCC[C@@H]21 [trandolapril]
PPB (fb) [3]: 0.84

OC(O)C(Cl)(Cl)Cl [chloral-hydrate]
PPB (fb) (plasma): 0.35

Isradipine
PPB (fb) (plasma): 0.95

CCCc1nc(C)c2c(=O)[nH]c(-c3cc(S(=O)(=O)N4CCN(CC)CC4)ccc3OCC)nn12 [Vardenafil]
PPB (fb) [2]: 0.95

CCCCCN(C)CCC(O)(P(=O)(O)O)P(=O)(O)O [Ibandronic Acid (Ibandronate)]
PPB (fb) [3]: 0.85

CC(Oc1c(Cl)cccc1Cl)C1=NCCN1 (stereo not drawn) [lofexidine]
PPB (fb) [2]: 0.6

CN1CC[C@]23c4c5ccc(OCCN6CCOCC6)c4O[C@H]2[C@@H](O)C=C[C@H]3[C@H]1C5 [pholcodine]
PPB (fb) (plasma): 0.24

C[C@H](O)C(=O)Nc1c(I)c(C(=O)NC(CO)CO)c(I)c(C(=O)NC(CO)CO)c1I [Iopamidol]
PPB (fb) [1]: 0

Nc1nc(=O)[nH]cc1F [Flucytosine]
PPB (fb) [3]: 0.02

lacidipine
PPB (fb) (plasma): 0.95

O=C(O)c1ccc(O)c(O)c1 [protocatechuic acid]
PPB (fb) [2]: 0.21

Cc1ccccc1N1C(=O)c2cc(S(N)(=O)=O)c(Cl)cc2NC1C (stereo not drawn) [Metolazone]
PPB (fb) [1]: 0.95

OCCN(CCO)c1nc(N2CCCCC2)c2nc(N(CCO)CCO)nc(N3CCCCC3)c2n1 [dipyridamole]
PPB (fb) [3]: 0.99

COc1cccc(OC)c1CC(=O)NC1C(=O)N2C1SC(C)(C)C2C(=O)O (stereo not drawn) [penicillin18]
PPB (fb) [3]: 0.77

CCCCC(=O)N(Cc1ccc(-c2ccccc2-c2nnn[nH]2)cc1)[C@H](C(=O)O)C(C)C [Valsartan]
PPB (fb) [2]: 0.95

COC(=O)Nc1nc2ccc(C(=O)c3ccccc3)cc2[nH]1 [Mebendazole]
PPB (fb) [1]: 0.93

C#CCCCC(=O)c1cc(C(C)(C)C)c(O)c(C(C)(C)C)c1 [tebufelone]
PPB (fb) [2]: 0.99

C#C[C@]1(O)CC[C@H]2[C@@H]3CCc4cc(O)ccc4[C@H]3CC[C@@]21C [Ethinylestradiol]
PPB (fb) [1]: 0.97

CC(C)(C)NCC(O)COc1cccc2c1CCC(=O)N2 (stereo not drawn) [carteolol]
PPB (fb) [3]: 0.15

Nc1nc(F)nc2c1ncn2[C@@H]1O[C@H](CO)[C@@H](O)[C@@H]1O [Fludarabine]
PPB (fb) [1]: 0.12

CCCC(C)(COC(N)=O)COC(N)=O [Meprobamate]
PPB (fb) (plasma): 0.1

c1ccc(C2(N3CCCCC3)CCCCC2)cc1 [Phencyclidine]
PPB (fb) (plasma): 0.68

NS(=O)(=O)c1cc(C(=O)O)cc(N2CCCC2)c1Oc1ccccc1 [Piretanide]
PPB (fb) [1]: 0.94

Cc1ccccc1C(OCCN(C)C)c1ccccc1 (stereo not drawn) [orphenadrine]
PPB (fb) [2]: 0.95

COc1nccnc1NS(=O)(=O)c1ccc(N)cc1 [sulfametopyrazine]
PPB (fb) [2]: 0.72

N[C@@H]1[C@H]2CN(c3nc4c(cc3F)c(=O)c(C(=O)O)cn4-c3ccc(F)cc3F)C[C@@H]12 [Trovafloxacin]
PPB (fb) [2]: 0.81

Nc1ncnc2c1ncn2CCOCP(=O)(O)O [Adefovir]
PPB (fb) [1]: 0.04

CC(CC1c2ccccc2CCc2ccccc21)CN(C)C (stereo not drawn) [butriptyline]
PPB (fb) [3]: 0.95

O=C1[C@H](CC[C@H](O)c2ccc(F)cc2)[C@@H](c2ccc(O)cc2)N1c1ccc(F)cc1 [Ezetimibe]
PPB (fb) [2]: 0.9

CN1CCN(CCCN2c3ccccc3Sc3ccc(C(F)(F)F)cc32)CC1 [trifluoperazine]
PPB (fb) [1]: 0.99

CCC(C)CCCCC(=O)NC(CCN)C(=O)NC(C(=O)NC(CCN)C(=O)NC1CCNC(=O)C(C(C)O)NC(=O)C(CCN)NC(=O)C(CCN)NC(=O)C(CC(C)C)NC(=O)C(Cc2ccccc2)NC(=O)C(CCN)NC1=O)C(C)O (stereo not drawn) [polymyxin-B] ({Octanoyl(6-Me)}-[Dab]T[Dab][Dab][Dab]FL[Dab][Dab]T; lactam 4-C; configuration not given here)
PPB (fb) (human, plasma): 0.1

C#C[C@]1(O)CC[C@H]2[C@@H]3CCC4=CC(=O)CC[C@@H]4[C@H]3CC[C@@]21C [norethisterone]
PPB (fb) [2]: 0.8

CC12CC3CC(C)(C1)CC(N)(C3)C2 [Memantine]
PPB (fb) [2]: 0.45

OCCN1CCN(CCCN2c3ccccc3C=Cc3ccccc32)CC1 [opipramol]
PPB (fb) [2]: 0.9

CC1(C)SC2C(NC(=O)CC(N)c3cccs3)C(=O)N2C1C(=O)O (stereo not drawn) [penicillin72]
PPB (fb) [3]: 0.32

CCC(C)(C)NCC(O)COc1ccccc1C(=O)CCc1ccccc1 (stereo not drawn) [Diprafenone]
PPB (fb) [3]: 0.98

CCN[C@@H]1C[C@H](N)[C@@H](O[C@H]2OC(CN)=CC[C@H]2N)[C@H](O)[C@H]1O[C@H]1OC[C@](C)(O)[C@H](NC)[C@H]1O [Netilmicin]
PPB (fb) [3]: 0.05

CN(C)/N=N/c1[nH]cnc1C(N)=O [Dacarbazine]
PPB (fb) [1]: 0.02

CNC(C)C1CCC(N)C(OC2C(N)CC(N)C(OC3OCC(C)(O)C(NC)C3O)C2O)O1 (stereo not drawn) [Gentamicin]
PPB (fb) (plasma): 0.1

Cc1c(N(C)C)c(=O)n(-c2ccccc2)n1C [amidopyrine]
PPB (fb) [3]: 0.3

Tigecycline
PPB (fb) (plasma): 0.8

O=C([O-])[O-].[Li+].[Li+] [Lithium Carbonate]
PPB (fb) (plasma): 0

C#CC(O)(/C=C/Cl)CC (stereo not drawn) [ethchlorvynol]
PPB (fb) (plasma): 0.6

CC1OC2(CS1)CN1CCC2CC1 (stereo not drawn) [cevimeline]
PPB (fb) [3]: 0.15

CN[C@@H]1[C@H](O)[C@H](NC)[C@H]2O[C@@]3(O)C(=O)C[C@@H](C)O[C@H]3O[C@@H]2[C@H]1O [spectinomycin]
PPB (fb) [2]: 0.05

CC1(C)SC2C(NC(=O)C(O)c3ccccc3)C(=O)N2C1C(=O)O (stereo not drawn) [penicillin37]
PPB (fb) [2]: 0.53

O=C(c1ccccc1)c1ccc2n1CCC2C(=O)O (stereo not drawn) [Ketorolac]
PPB (fb) [1]: 0.99

[H]/N=C(/N)N[C@H]1[C@H](O)[C@@H](O)[C@H](O[C@@H]2O[C@@H](C)[C@](O)(C=O)[C@H]2O[C@@H]2O[C@@H](CO)[C@H](O)[C@@H](O)[C@@H]2NC)[C@@H](N/C(N)=N\[H])[C@@H]1O [Streptomycin]
PPB (fb) [2]: 0.37

CC12CC(=O)C3C(CCC4CC(O)CCC43C)C1CCC2C(=O)CO (stereo not drawn) [alfadolone]
PPB (fb) [3]: 0.3

Nc1nc(O)c2ncn(COC(CO)CO)c2n1 [Ganciclovir]
PPB (fb) [1]: 0.01

[H]/N=C(/N)N/C(=N/[H])NCCc1ccccc1 [phenformin]
PPB (fb) [2]: 0.16

CN(C)CCCN1c2ccccc2Sc2ccccc21 [Promazine]
PPB (fb) [1]: 0.89

[H]/N=C(\N/C(=N/[H])Nc1ccc(Cl)cc1)NC(C)C [chlorguanide]
PPB (fb) [3]: 0.85

CC1(C)SC2C(NC(=O)C(NC(=O)c3ccc(S(N)(=O)=O)cc3)c3ccccc3)C(=O)N2C1C(=O)O (stereo not drawn) [penicillin35]
PPB (fb) [2]: 0.42

CC(C)(C)NC(=O)[C@@H]1C[C@@H]2CCCC[C@@H]2CN1C[C@@H](O)[C@H](Cc1ccccc1)NC(=O)[C@H](CC(N)=O)NC(=O)c1ccc2ccccc2n1 [Saquinavir]
PPB (fb) [2]: 0.98

NCCC(O)(P(=O)(O)O)P(=O)(O)O [pamidronic acid]
PPB (fb) [3]: 0.14

O=C1Nc2ccc(Cl)cc2[C@@](C#CC2CC2)(C(F)(F)F)O1 [efavirenz]
PPB (fb) [2]: 0.99

Nc1cc(N2CCCCC2)nc(N)[n+]1[O-] [minoxidil]
PPB (fb) [2]: 0.03

COc1cc(Cc2cnc(N)nc2N)cc(OC)c1OC [Trimethoprim]
PPB (fb) [2]: 0.46

OC(Cn1cncn1)(Cn1cncn1)c1ccc(F)cc1F [Fluconazole]
PPB (fb) [1]: 0.16

CC1(C)S[C@@H]2[C@H](NC(=O)COc3ccccc3)C(=O)N2[C@H]1C(=O)O [Phenoxymethylpenicillin]
PPB (fb) [3]: 0.67

COCC1CN(c2ccc(OCc3cccc(C#N)c3)cc2)C(=O)O1 (stereo not drawn) [cimoxatone]
PPB (fb) [3]: 0.94

CSc1ccc(C(=O)c2[nH]c(=O)[nH]c2C)cc1 [Fenoximone]
PPB (fb) [1]: 0.74

Clc1ccccc1CN1CCc2sccc2C1 [ticlopidine]
PPB (fb) [2]: 0.96

COc1ccc2c3c1O[C@H]1[C@@H](O)C=C[C@H]4[C@@H](C2)N(C)CC[C@@]341 [Codeine]
PPB (fb) (plasma): 0.21

CC1(C)SC2C(NC(=O)C(N)c3ccc(Cl)c(Cl)c3)C(=O)N2C1C(=O)O (stereo not drawn) [penicillin29]
PPB (fb) [3]: 0.82

CC(c1cc2ccccc2s1)N(O)C(N)=O (stereo not drawn) [zileuton]
PPB (fb) [3]: 0.93

CO/N=C(\C(=O)N[C@@H]1C(=O)N2C(C(=O)O)=C(COC(C)=O)CS[C@H]12)c1csc(N)n1 [Cefotaxime]
PPB (fb) [3]: 0.38

CC(C)C(=O)Nc1ccc([N+](=O)[O-])c(C(F)(F)F)c1 [flutamide]
PPB (fb) [2]: 0.9

O=C(O)c1cn(-c2ccc(F)cc2)c2cc(N3CCNCC3)c(F)cc2c1=O [2c(p-F)]
PPB (fb) [3]: 0.31
